Reference: patent publication US20250152577A1, “Pharmaceutical Composition of Ethidium Bromide and Use in Treating Cancer” (RUIJIN HOSPITAL, SHANGHAI JIAOTONG UNIVERSITY SCHOOL OF …, priority 2022, published 2025)

Tests used:
PANC1 Pancreatic cancer = assay: Median lethal dosage (IC50) against tumor cell lines; type: cell-based; conditions: Homo sapiens, PANC-1; PANC1 pancreatic cancer tumor cells
[1] = tested on: mTOR, p-NFkB, p-Erk, cleaved Caspase3; assay: Signaling molecules in cells by Western blotting; type: cell-based
Experimental: (§1) We investigated the mechanism of ethidium bromide-induced apoptosis in tumor cells. First, tumor tissues treated with ethidium bromide (mice shown in FIGS. 7 and 8, treated for 4 weeks at 20 mg/Kg per day) were subjected to SDS-Loading buffer boiling lysis and tested for associated signaling pathways by Western blotting.
In order to further determine how ethidium bromide activates phosphorylation of Erk and Caspase3 cleavage and induces apoptosis, we also tested with different cell lines treated with ethidium bromide for 10 min, 30 min, 1, 2, and 6 h.

N2A Neuroglioma = assay: Median lethal dosage (IC50) against tumor cell lines; type: cell-based; conditions: N2A neuroglioma tumor cells
[2] = cited from earlier work
C2C12 = assay: Median lethal dosage (IC50) against normal cell lines; type: cell-based; conditions: Mus musculus; C2C12 normal cells
normal cells = assay: Median lethal dosage, summary over normal cells; type: cell-based; conditions: mostly, normal cells of Table 1; read-out: median lethal dosages against normal cells
[3] = tested on: colorectal cancer cells RKO; assay: Intraperitoneal RKO in nude mice, intraperitoneal administration; type: in vivo; conditions: intraperitoneal 10 mg/Kg once daily until day 5
Experimental: In addition, we also tested for nude mice utilizing intraperitoneal administration, where 2×10^6 colorectal cancer cells, RKO, were first injected intraperitoneally in nude mice, and about 3 days later, we treated the nude mice using intraperitoneal administration (10 mg/Kg).

[4] = tested on: colorectal cancer cells RKO; assay: Subcutaneous RKO solid tumor in nude mice, gavage administration; type: in vivo; conditions: gavage 20 mg/Kg
Experimental: We also tested the anti-tumor activity of ethidium bromide against subcutaneous solid tumors. 2×10^6 colorectal cancer cells RKO were injected subcutaneously. About 1 week later, when solid tumors grew subcutaneously in nude mice, gavage administration (20 mg/Kg) was started. The size of the tumors was measured twice a week.

[5] = tested on: AOM+DSS-induced colorectal tumor; assay: AOM+DSS-induced spontaneous colorectal cancer mouse model; type: in vivo, mice
Experimental: The classical intraperitoneal injection of AOM and the spontaneous colorectal cancer formation by three rounds of DSS were utilized to construct a tumor mouse model. Mice were treated with ethidium bromide (500 mg/L dissolved in drinking water) one week after completion of the construction. […] Mice were sacrificed and their colorectum was taken for photographic observation and fixed staining.
To further verify the above results, we then expanded the sample size to about 10-16 mice per group and still used the above AOM+DSS protocol to induce spontaneous colorectal cancer formation in mice. […] Meanwhile, since it has been reported that zalcitabine (ddC) can effectively impair the function of mitochondria (mainly the replication of mtDNA, similar to ethidium bromide), we added the experimental group of zalcitabine (33 mg/Kg) as a control.
In addition, in order to investigate in what way ethidium bromide clears tumors in mice, we also tested cell proliferation (FIGS. 8A and B) and apoptosis (FIG. 8C-F) in tumor tissues and normal tissues surrounding the tumors in different treatment groups. Among them, cell proliferation was detected by immunohistochemistry of Ki67-positive cells, and apoptosis was detected by immunofluorescence staining of cleaved Caspase3.
To further verify whether ethidium bromide is still effective against already existing larger tumors (advanced colorectal cancer), we set aside a group of control mice (started administration 5 weeks after the end of induction, equivalent to the control group of mice described above) to administer them by gavage (20 mg/Kg per day).
as §1

AGS Gastric cancer = assay: Median lethal dosage (IC50) against tumor cell lines; type: cell-based; conditions: AGS gastric cancer tumor cells
[6] = tested on: pancreatic cancer cells Panel; assay: Ectopic lung metastasis after intravenous injection of pancreatic cancer cells in nude mice; type: in vivo; conditions: intravenous 5 mg/Kg per day, start about 3 weeks after cell injection, 4 weeks
Experimental: In addition, to further investigate the effect of ethidium bromide on ectopic tissue metastatic tumors, we injected 2×10^6 pancreatic cancer cells Panel intravenously into nude mice. After ectopic tissue metastasis, tumors formed primarily in the lungs. After approximately 3 weeks, intravenous administration of 5 mg/Kg ethidium bromide per day was started after the tumor had already grown in the lung tissue (FIG. 15A). The mice were sacrificed after 4 weeks of administration and the lungs were removed for test.

[7] = cell lines treated 10 min, 30 min, 1, 2, 6 h
[8] = gavage 20 mg/Kg once daily, one month

## CC[n+]1c(-c2ccccc2)c2cc(N)ccc2c2ccc(N)cc21 [ethidium bromide, Ethidium bromide]
PANC1 Pancreatic cancer
  IC50: 3.3 µM
[1]; [7]
  time at which mTOR was activated: 10 min
  time at which p-Erk was activated: 1 h
  time at which p-NFkB was activated: 30 min
[1]; in vitro cells (AGS, GES1, RKO), 3 days of treatment
  cleaved Caspase3 and Erk phosphorylation in vitro: significant increase in the phosphorylation levels of both cleaved Caspase3 and Erk
N2A Neuroglioma
  IC50: 15.7 µM
[2]; National Toxicology Program, 1239-45-8
  DNA mutations and carcinogenesis in cells or organisms: no evidence that ethidium bromide can induce DNA mutations and carcinogenesis
[2]; long-term treatment, Mutation Research, 174(1986) 175-178
  genetic mutations in cells: do not create genetic mutations
C2C12
  IC50: 85.5 µM
Normal cells
  IC50: > 50 µM
[3]
  deaths: excessive deaths in nude mice
[4]
  viability of nude mice: contributed to improve the viability of nude mice
[4]; start about 1 week after cell injection
  inhibitory effect on subcutaneous solid tumors: very unsatisfactory
[5]; 500 mg/L in drinking water, start one week after model construction, 2 months
  colorectal tumor mass: almost complete disappearance of the tumor mass
[5]; 4 weeks at 20 mg/Kg per day
  cleaved Caspase3, phosphorylation of Erk, LC3 level in tumor tissues (Western blotting): significant increase in cleaved Caspase3
[5]; [8]
  body weight: little changed
  mice with complete disappearance of spontaneous colorectal tumors: more than 80%
  mtDNA copy number of colorectal tumors: did not alter the mitochondrial mtDNA copy number
  size of the spleen, length of colorectum, weight of tissue organs vs control: healthier
[5]; larger (advanced) tumors, start 5 weeks after end of induction, gavage 20 mg/Kg per day, 1 month
  mice achieving complete tumor clearance: more than 40%
[5]; vs other groups and surrounding normal tissues
  Caspase3-positive tumor cells (apoptotic cells, immunofluorescence): significantly higher
[5]; vs other treatment groups
  proliferation of tumor cells (Ki67-positive, immunohistochemistry): significantly lower
AGS Gastric cancer
  IC50: 0.71 µM
[6]
  tumors in the lung tissues vs control: significantly smaller than those in the control group
